Assay results: publication PMC6684085, “Intragenic antimicrobial peptides (IAPs) from human proteins with potent antimicrobial and anti-inflammatory activity” (PLoS ONE, 2019)
Values after ≈ are worked out from the molar mass of the structure shown. “Also recorded” adds a separate entry of the source. Each block holds one compound with its values, some of them ahead of it. Ends that are not written are not given here.

Tests used:
Candida albicans 90028 = assay: microbe, parasite or virus in culture; assay type: cell-based; settings: ATCC90028, ATCC 90028, peptides 0.5 to 256 μM, 100 μL, 96-well, no cells seen by optical microscopy, three biological repetitions with 2 technical replicates, mean ± SD, read-out: Minimum inhibitory concentration (μM ± SD) C. albicans
Protocol: (§1) Protocols M7-A10 [46], M27-A3 [47] and M38-A2 [48] from Clinical & Laboratory Standards Institute (CLSI) were used to test the susceptibility of bacteria, yeasts and filamentous fungi to the Hs IAPs. Briefly, Hs IAPs ranging from 0.5 to 256 μM were tested against microorganisms in a final volume of 100μL. Tests were performed in polystyrene flat-bottom 96 wells microplates and each test consisted of three biological repetitions with 2 technical replicates each. The minimum inhibitory concentration (MIC) was defined as the concentration that no cells/hyphae were detected when visualized by optical microscopy. ATCC reference strains: Candida albicans 90028, Staphylococcus aureus 25923, Pseudomonas aeruginosa 27853, Trichophyton rubrum 28189, Staphylococcus epidermidis 12228.

[1] = tested on: Staphylococcus aureus 25923; assay: microbe, parasite or virus in culture; assay type: cell-based; settings: ATCC 25923, peptides 0.5 to 256 μM, 100 μL, 96-well, three biological repetitions with 2 technical replicates, mean ± SD
Protocol: as §1

[2] = tested on: Staphylococcus epidermidis 12228; assay: microbe, parasite or virus in culture; assay type: cell-based; settings: ATCC 12228, peptides 0.5 to 256 μM, 100 μL, 96-well, three biological repetitions with 2 technical replicates, mean ± SD
Protocol: as §1

[3] = tested on: Pseudomonas aeruginosa 27853; assay: microbe, parasite or virus in culture; assay type: cell-based; settings: ATCC27853, ATCC 27853, peptides 0.5 to 256 μM, 100 μL, 96-well, three biological repetitions with 2 technical replicates, mean ± SD, read-out: Minimum inhibitory concentration (μM ± SD) P. aeruginosa
Protocol: as §1

[4] = tested on: mouse BALB/cN macrophage (J774A.1) cell line; assay type: cell-based; settings: for Viability of J774A.1 macrophages versus DMEM untreated control: 24 h exposure, peptide at 0.1, 1 and 10 μM, flow cytometry, 20,000 events/sample, p<0.05
Protocol: (§2) Fig 4 a. Cytotoxicity evaluation in the mouse BALB/cN macrophage (J774A.1) cell line after exposure for 24 h at 0.1, 1.0 and 10 μM concentrations. DMEM was used as a negative control. Cells were analyzed by flow cytometry (20,000 events/sample). b. Evaluation of the cell death mechanism mediated by Hs02 in J774A.1 cells after exposure for 24 h at 0.1, 1.0 and 10 μM concentrations using annexin-V FITC (apoptosis marker) and propidium iodide (PI, necrosis marker) staining. Cells were analyzed by flow cytometry (20,000 events/sample). The values are expressed as mean ± SEM. * p<0.05 and **** p<0.0001 versus DMEM untreated control group. # p<0.05 versus apoptosis staining for each respective group.
(§3) The cytotoxicity of Hs IAPs was performed using human red blood cells in strict accordance with relevant guidelines and regulations (Ethical committee–UnB # 1.939.989 as described elsewhere. Cytotoxic effect of IAPs was evaluated by MTT assay and flow cytometry analysis using murine peritoneal macrophages from C57BL/6 mice or a BALB/cN-derived macrophages (J774A.1) cell line. For cell viability assays using MTT, murine peritoneal macrophages from C57BL/6 mice were plated in triplicate wells in 96-well plates at a density of 1.0 × 10^5 cells per well and stimulated or not with different concentrations of Hs IAPs (0.1, 1 and 10 μM) and incubated for 24h. After that, 20μl of a solution of 3-(4,5-Dimethyl-thiazol-2-yl)-2,5-diphenyl-tetrazolium bromide (MTT, Sigma) was added to each well (5 mg/ml of MTT in phosphate buffered saline). The plates were incubated at 37°C for 3 hours and then processed as previously described. Cell death was analysed by annexin V-FITC/PI staining followed by flow cytometry analysis. Mouse BALB/cN macrophage (J774A.1) cell line was acquired from ATCC (number TIB-67) and cultured in Dulbecco’s Modified Eagle’s Medium (DMEM) (Life) supplemented with 10% heat inactivated foetal bovine serum (Life) and 1% antibiotic solution (100 IU/mL penicillin/100 μg/mL streptomycin, Life) at 37°C, 5% CO2, in a humidified atmosphere. […]

human red blood cells = assay type: cell-based
Protocol: The cytotoxicity of Hs IAPs was performed using human red blood cells in strict accordance with relevant guidelines and regulations (Ethical committee–UnB # 1.939.989 as described elsewhere. Cytotoxic effect of IAPs was evaluated by MTT assay and flow cytometry analysis using murine peritoneal macrophages from C57BL/6 mice or a BALB/cN-derived macrophages (J774A.1) cell line. For cell viability assays using MTT, murine peritoneal macrophages from C57BL/6 mice were plated in triplicate wells in 96-well plates at a density of 1.0 × 10^5 cells per well and stimulated or not with different concentrations of Hs IAPs (0.1, 1 and 10 μM) and incubated for 24h. After that, 20μl of a solution of 3-(4,5-Dimethyl-thiazol-2-yl)-2,5-diphenyl-tetrazolium bromide (MTT, Sigma) was added to each well (5 mg/ml of MTT in phosphate buffered saline). The plates were incubated at 37°C for 3 hours and then processed as previously described. Cell death was analysed by annexin V-FITC/PI staining followed by flow cytometry analysis. Mouse BALB/cN macrophage (J774A.1) cell line was acquired from ATCC (number TIB-67) and cultured in Dulbecco’s Modified Eagle’s Medium (DMEM) (Life) supplemented with 10% heat inactivated foetal bovine serum (Life) and 1% antibiotic solution (100 IU/mL penicillin/100 μg/mL streptomycin, Life) at 37°C, 5% CO2, in a humidified atmosphere. J774A.1 cells were seeded into 96-well culture plates in DMEM culture medium for 2 h at 37°C and 5% CO2 in a humid atmosphere at a density of 1.0 × 10^5 cells, and stimulated or not with different concentrations of Hs IAPs (0.1, 1 and 10 μM). The plates were incubated for 24 h, washed in PBS, and resuspended in 100 μL of binding buffer (10 mM HEPES/NaOH pH 7.4, 140 mM NaCl, ad 2.5 mM CaCl2). Cells were then treated with 2 μL of annexin-V FITC in Aqueous buffered solution containing BSA and ≤0.09% sodium azide (BD Pharmingen) and 2 μL of propidium iodide (PI, 50 μg/mL) for 15 min in the dark at room temperature. Next, 100 μL binding buffer was added and a total of 20,000 events were collected per sample in flow cytometer (BD LSRFortessa).

[5] = tested on: murine peritoneal macrophages from C57BL/6 mice; assay: MTT reduction assay in primary macrophages; assay type: cell-based, mouse; settings: 24 h incubation, triplicate wells (S1 Fig)
Protocol: as §3

[6] = tested on: murine peritoneal macrophages from C57BL/6 mice; assay: LPS-induced TNF-α release by ELISA; assay type: cell-based, mouse; settings: macrophages primed with 500 ng/mL LPS for 4 h, then peptide for 24 h, Hs02 at 0.1, 1 and 10 μM, DS01 at 1 and 10 μM
Protocol: Fig 5 TNF-α secretion and lipid droplet biogenesis evaluation. a. Murine peritoneal macrophages from C57BL/6 mice were pre-treated or not with LPS (500 ng/ml) for 4h and then stimulated or not with Hs IAPs (0.1, 1.0 and 10 μM), incubated for 24h and TNF-α levels measured by ELISA b. In parallel, murine peritoneal macrophages from C57BL/6 mice were pre-treated or not with LPS (500 ng/ml) for 4h and then stimulated or not with Hs IAPs (0.1 μM), incubated for 24h and lipid droplets were quantitated by flow cytometry (B). The values are expressed as mean ±SEM. * p<0.05 and **** p<0.0001 versus DMEM control group. […] The digits of 121, 119, 364 and 122 are best readings.
The modulation of pro-inflammatory cytokine TNF-α secretion induced by IAPs was evaluated by ELISA. […] Supernatant TNF-α concentration was detected by ELISA with a R&D Systems (USA) kit. […] Plates were read after adding the stop solution at 450nm using SpectraMax M3spectrophotometer (Molecular Devices).
Supplementary file pone.0220656.s004.tif: S3 Fig TNF-α release in murine macrophages. Murine peritoneal macrophages from C57BL/6 mice were pre-treated or not with LPS (500 ng/ml) for 4h and then stimulated or not with the AMP DS01 (10, and 1 μM), incubated for 24h and TNF-α levels measured by ELISA. The values are expressed as mean ±SEM. * p<0.05 and **** p<0.0001 versus DMEM control group. […]

[7] = tested on: mouse BALB/cN macrophage (J774A.1) cell line; assay: Annexin-V FITC / propidium iodide staining by flow cytometry; assay type: cell-based; settings: 24 h exposure at 0.1, 1.0 and 10 μM; flow cytometry, 20,000 events/sample
Protocol: as §2
The cytotoxicity of Hs IAPs was performed using human red blood cells in strict accordance with relevant guidelines and regulations (Ethical committee–UnB # 1.939.989 as described elsewhere. Cytotoxic effect of IAPs was evaluated by MTT assay and flow cytometry analysis using murine peritoneal macrophages from C57BL/6 mice or a BALB/cN-derived macrophages (J774A.1) cell line. For cell viability assays using MTT, murine peritoneal macrophages from C57BL/6 mice were plated in triplicate wells in 96-well plates at a density of 1.0 × 10^5 cells per well and stimulated or not with different concentrations of Hs IAPs (0.1, 1 and 10 μM) and incubated for 24h. […]

MIC (Candida albicans 90028): 0.27 µM (≈ 0.25 µg/mL)
Compound: C[C@@H]1[C@H](O)[C@@H](C)/C=C/C=C/C=C/C=C/C=C/C=C/C=C/[C@H](O[C@@H]2O[C@H](C)[C@@H](O)[C@H](N)[C@@H]2O)C[C@@H]2O[C@](O)(C[C@@H](O)C[C@@H](O)[C@H](O)CC[C@@H](O)C[C@@H](O)CC(=O)O[C@H]1C)C[C@H](O)[C@H]2C(=O)O [Amphotericin b]

Compound: CC1(C)S[C@@H]2[C@H](NC(=O)[C@H](N)c3ccccc3)C(=O)N2[C@H]1C(=O)O [Ampicilin]
Minimum inhibitory concentration (μM ± SD) S. aureus [1]: 5.38 ± 0.0 µM (≈ 1.88 µg/mL)
Minimum inhibitory concentration (μM ± SD) S. epidermidis [2]: 43.10 ± 0.0 µM (≈ 15.1 µg/mL)

MIC (Candida albicans 90028): 1.63 µM (≈ 0.499 µg/mL)
Compound: OC(Cn1cncn1)(Cn1cncn1)c1ccc(F)cc1F [Fluconazol]

MIC ([1]; Staphylococcus aureus, ATCC25923, read-out: Minimum inhibitory concentration (μM ± SD) S. aureus): 0.26 µM (≈ 0.124 µg/mL)
MIC ([2]; Staphylococcus epidermidis, ATCC12228, read-out: Minimum inhibitory concentration (μM ± SD) S. epidermidis): 0.26 µM (≈ 0.124 µg/mL)
MIC [3]: 0.13 µM (≈ 0.0621 µg/mL)
Compound: CNC(C)C1CCC(N)C(OC2C(N)CC(N)C(OC3OCC(C)(O)C(NC)C3O)C2O)O1 (centres unmarked) [Gentamicin]

Compound: OO [hydrogen peroxide (H2O2), hydrogen peroxide]
Viability of J774A.1 macrophages versus DMEM untreated control [4]: decreased significantly (p<0.05) the cell viability

Compound: FLREFHKWIERVVGWLGKVF-NH2 [Hs03]
Hemolytic activity SC50 (human red blood cells): > 128 µM
Concentration that reduced the viability of peritoneal macrophages to 50% [5]: approximately 10 μM

Compound: GFKDLLKGAAKALVKTVLF-NH2 [Asc-8]
Hemolytic activity SC50 (human red blood cells): 32 µM

Compound: GLWSTIKQKGKEAAIAAAKAAGQAALGAL-NH2 [DS01]
Hemolytic activity SC50 (human red blood cells): > 128 µM
Peptide concentration that inhibits LPS-induced release of TNF-α [6]: > 10 µM

Compound: KWAVRIIRKFIKGFIS-NH2 [Hs02]
Hemolytic activity SC50 (human red blood cells): > 128 µM
Viability of J774A.1 macrophages versus DMEM untreated control [4]: did not cause significant (p<0.05) reduction in the viability
Concentration tolerated by the J774A.1 macrophage cell line ([4]; flow cytometry, 24 h, 0.1, 1 and 10 μM tested): ≥ 10 µM
Apoptosis (annexin-V FITC) or necrosis (PI) in J774A.1 cells versus DMEM control [7]: did not present significant apoptosis or necrosis; also recorded: No significant apoptosis or necrosis

Compound: LFNNYITAALKLLEKLYKV-NH2 [Hs04]
Hemolytic activity SC50 (human red blood cells): 64 µM
Concentration that reduced the viability of peritoneal macrophages to 50% [5]: approximately 10 μM

Compound: LKMLGMLFHNIRNILKTV-NH2 [Hs01]
Hemolytic activity SC50 (human red blood cells): > 128 µM
